Literature values in patent US20090197946A1, “COMPOSITION AND METHOD FOR TREATMENT OF INFLAMATION AND INFECTIONS OF THE GENITALIA, CONTRACEPTIVE AND THE PROPHYLAXIS OF SEXUALLY TRANSMITTED DISEASES” (priority 2008, published 2009).

Tests used:
[1] = in vivo
vaginal epithelium = settings: topical, African commercial sex workers

Compound | known potential side effects [1] | effect of frequent use on the vaginal epithelium (vaginal epithelium) | susceptibility to the HIV infection (vaginal epithelium; frequent use)
CC(C)OC(=O)OCOP(=O)(CO[C@H](C)Cn1cnc2c(N)ncnc21)OCOC(=O)OC(C)C [Viread, Tenofovir] | nausea, diarrhea, vomiting and flatulence | – | –
nonoxynol 9 | – | damaged the vaginal epithelium | increased their susceptibility to the HIV infection
